One test has as its target CRBN/DDB1 (Homo sapiens (Human), UniProt Q96SW2). The test can be described thus: IC50 measurements for binding to CRBN/DDB1 (HTRF). The settings on record: His tagged CRBN+DDB, Cy5-labeled Thalidomide probe, one hour. In short, it runs like this:
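HTRF competition binding with 2 nM His-tagged CRBN-DDB1 complex, 60 nM Cy5-thalidomide probe and 0.4 nM anti-His Tb cryptate in 50 mM HEPES pH 7.5, 1 mM TCEP, 0.01% Brij-35, 50 mM NaCl, 0.1% BSA. Read after 1 h at room temperature; IC50 from four-parameter dose-response fit.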

A further test deals with IKZF2 (Homo sapiens (Human), UniProt Q96SW2+Q9UKS7). The test can be described thus: In vitro IKZF2 HiBit Assay (HEK293T Flp-in-HiBiT cells). It counts as cell-based. The settings on record: HEK293T Flp-in-HiBiT cells, 6 hrs incubation; for DC50: read-out: IKZF2 HiBit DC50; for Dmax: HEK-293T, read-out: IKZF2 HiBit Dmax (%). In short, it runs like this: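 HEK293T Flp-in cells carrying an endogenous N-terminal HiBiT tag on IKZF2 were exposed to compound for 6 h at 0.1% DMSO. The dilution series was 11 doses at 3-fold, diluted from 1 mM. Nano-Glo HiBiT lytic luminescence, normalized to DMSO, gave DC50 for 50% degradation and Dmax across the concentration range, both reported in letter bins.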
(In general: With HiBiT, luminescence reflects the tagged protein that the partner subunit can reach.)

A further test deals with IKZF1 (Homo sapiens (Human), UniProt Q13422+Q96SW2). The test can be described thus: In vitro IKZF1 HiBit Assay (HEK293T Flp-in-HiBiT-IKZF1 stable cell line). The test is classed as cell-based. Conditions: HEK293T Flp-in-HiBiT-IKZF1 stable cell line, 6 hrs incubation; for DC50: read-out: IKZF1 HiBit DC50; for Dmax: HEK-293T, read-out: IKZF1 HiBit Dmax (%). In short, it runs like this:
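HEK293T Flp-in cells carrying N-terminal HiBiT-tagged IKZF1 were exposed to compound (0.1% DMSO) for 6 h at 3000 cells/well. HiBiT luminescence was read after lytic LgBiT detection. DC50 and Dmax were taken from DMSO-normalized dose-response curves.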

Sequence of IKZF1 (Q13422 whole entry): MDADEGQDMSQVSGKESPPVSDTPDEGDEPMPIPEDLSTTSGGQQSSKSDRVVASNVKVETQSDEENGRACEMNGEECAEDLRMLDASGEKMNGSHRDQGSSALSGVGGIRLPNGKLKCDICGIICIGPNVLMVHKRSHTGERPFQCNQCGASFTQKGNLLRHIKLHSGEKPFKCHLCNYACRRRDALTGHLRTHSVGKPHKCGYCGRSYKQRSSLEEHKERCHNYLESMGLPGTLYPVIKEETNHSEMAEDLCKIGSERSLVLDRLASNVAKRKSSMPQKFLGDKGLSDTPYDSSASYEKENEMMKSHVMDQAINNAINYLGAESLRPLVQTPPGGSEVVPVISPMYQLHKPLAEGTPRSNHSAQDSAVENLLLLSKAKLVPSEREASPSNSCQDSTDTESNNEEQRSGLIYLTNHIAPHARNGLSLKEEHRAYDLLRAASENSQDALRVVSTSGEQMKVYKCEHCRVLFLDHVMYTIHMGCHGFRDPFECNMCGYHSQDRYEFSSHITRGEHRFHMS
Sequence of IKZF1 (Q96SW2 whole entry): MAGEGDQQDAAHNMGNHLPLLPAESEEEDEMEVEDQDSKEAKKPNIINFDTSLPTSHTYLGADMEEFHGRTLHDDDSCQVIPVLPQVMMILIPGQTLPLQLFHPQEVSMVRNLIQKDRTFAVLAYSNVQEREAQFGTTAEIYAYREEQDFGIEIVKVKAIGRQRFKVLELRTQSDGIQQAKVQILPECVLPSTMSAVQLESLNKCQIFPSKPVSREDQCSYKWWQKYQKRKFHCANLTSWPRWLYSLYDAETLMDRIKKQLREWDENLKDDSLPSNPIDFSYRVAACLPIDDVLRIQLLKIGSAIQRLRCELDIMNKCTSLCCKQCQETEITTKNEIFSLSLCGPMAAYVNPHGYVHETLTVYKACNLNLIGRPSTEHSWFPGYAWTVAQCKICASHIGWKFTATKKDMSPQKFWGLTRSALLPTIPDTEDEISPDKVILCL
Sequence of IKZF1 (Q16531 2-1140 partner): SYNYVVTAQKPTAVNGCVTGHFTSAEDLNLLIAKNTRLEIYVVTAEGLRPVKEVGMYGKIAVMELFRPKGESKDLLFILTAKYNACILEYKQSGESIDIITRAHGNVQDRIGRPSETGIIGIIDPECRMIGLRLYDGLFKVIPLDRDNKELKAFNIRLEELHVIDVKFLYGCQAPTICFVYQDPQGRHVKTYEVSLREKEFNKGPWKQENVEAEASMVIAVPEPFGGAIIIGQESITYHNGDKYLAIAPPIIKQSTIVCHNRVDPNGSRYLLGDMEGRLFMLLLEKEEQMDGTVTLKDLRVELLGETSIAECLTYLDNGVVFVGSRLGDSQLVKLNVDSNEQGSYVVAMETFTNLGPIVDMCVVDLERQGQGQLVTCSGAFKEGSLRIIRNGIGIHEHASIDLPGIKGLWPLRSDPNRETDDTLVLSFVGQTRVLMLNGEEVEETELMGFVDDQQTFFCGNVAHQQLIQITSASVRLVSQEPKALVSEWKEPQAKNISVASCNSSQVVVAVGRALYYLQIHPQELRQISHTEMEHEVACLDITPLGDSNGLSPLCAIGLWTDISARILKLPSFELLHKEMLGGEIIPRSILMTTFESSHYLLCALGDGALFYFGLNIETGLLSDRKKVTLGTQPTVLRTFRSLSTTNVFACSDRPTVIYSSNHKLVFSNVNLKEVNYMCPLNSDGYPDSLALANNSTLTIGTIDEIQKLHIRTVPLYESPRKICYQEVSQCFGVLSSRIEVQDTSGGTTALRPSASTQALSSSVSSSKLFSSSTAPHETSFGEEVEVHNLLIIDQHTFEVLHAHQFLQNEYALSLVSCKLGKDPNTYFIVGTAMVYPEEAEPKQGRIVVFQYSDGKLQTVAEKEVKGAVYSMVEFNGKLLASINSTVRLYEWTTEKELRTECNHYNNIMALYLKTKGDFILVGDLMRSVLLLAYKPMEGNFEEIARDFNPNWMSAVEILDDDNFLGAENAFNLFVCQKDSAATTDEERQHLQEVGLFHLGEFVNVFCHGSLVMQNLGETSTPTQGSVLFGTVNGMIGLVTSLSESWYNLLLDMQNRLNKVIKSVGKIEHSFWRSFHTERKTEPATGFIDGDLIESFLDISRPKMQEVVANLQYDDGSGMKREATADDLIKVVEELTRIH
Sequence of IKZF2 (Q9UKS7 whole entry): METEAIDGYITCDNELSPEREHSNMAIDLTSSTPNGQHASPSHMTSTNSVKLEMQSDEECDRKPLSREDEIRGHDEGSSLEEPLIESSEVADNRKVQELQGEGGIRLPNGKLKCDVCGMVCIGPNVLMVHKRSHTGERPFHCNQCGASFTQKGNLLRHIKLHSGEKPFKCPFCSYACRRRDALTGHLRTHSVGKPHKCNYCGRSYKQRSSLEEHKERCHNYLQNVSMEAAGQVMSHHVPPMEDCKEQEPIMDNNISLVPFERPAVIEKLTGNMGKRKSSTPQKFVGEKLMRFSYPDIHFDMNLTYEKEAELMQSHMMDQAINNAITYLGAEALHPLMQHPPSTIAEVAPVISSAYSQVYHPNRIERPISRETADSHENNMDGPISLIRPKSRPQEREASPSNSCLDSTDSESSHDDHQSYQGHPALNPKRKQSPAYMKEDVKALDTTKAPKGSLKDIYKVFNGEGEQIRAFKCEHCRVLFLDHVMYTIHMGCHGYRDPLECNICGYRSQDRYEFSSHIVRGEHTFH
Sequence of IKZF2 (Q96SW2 whole entry): as the sequence (Q96SW2 whole entry) above
Sequence of IKZF2 (Q16531 2-1140 partner): as the sequence (Q16531 2-1140 partner) above
Sequence of CRBN/DDB1 (Q96SW2 whole entry, species assumed): as the sequence (Q96SW2 whole entry) above
Sequence of CRBN/DDB1 (Q16531 whole entry partner, species assumed): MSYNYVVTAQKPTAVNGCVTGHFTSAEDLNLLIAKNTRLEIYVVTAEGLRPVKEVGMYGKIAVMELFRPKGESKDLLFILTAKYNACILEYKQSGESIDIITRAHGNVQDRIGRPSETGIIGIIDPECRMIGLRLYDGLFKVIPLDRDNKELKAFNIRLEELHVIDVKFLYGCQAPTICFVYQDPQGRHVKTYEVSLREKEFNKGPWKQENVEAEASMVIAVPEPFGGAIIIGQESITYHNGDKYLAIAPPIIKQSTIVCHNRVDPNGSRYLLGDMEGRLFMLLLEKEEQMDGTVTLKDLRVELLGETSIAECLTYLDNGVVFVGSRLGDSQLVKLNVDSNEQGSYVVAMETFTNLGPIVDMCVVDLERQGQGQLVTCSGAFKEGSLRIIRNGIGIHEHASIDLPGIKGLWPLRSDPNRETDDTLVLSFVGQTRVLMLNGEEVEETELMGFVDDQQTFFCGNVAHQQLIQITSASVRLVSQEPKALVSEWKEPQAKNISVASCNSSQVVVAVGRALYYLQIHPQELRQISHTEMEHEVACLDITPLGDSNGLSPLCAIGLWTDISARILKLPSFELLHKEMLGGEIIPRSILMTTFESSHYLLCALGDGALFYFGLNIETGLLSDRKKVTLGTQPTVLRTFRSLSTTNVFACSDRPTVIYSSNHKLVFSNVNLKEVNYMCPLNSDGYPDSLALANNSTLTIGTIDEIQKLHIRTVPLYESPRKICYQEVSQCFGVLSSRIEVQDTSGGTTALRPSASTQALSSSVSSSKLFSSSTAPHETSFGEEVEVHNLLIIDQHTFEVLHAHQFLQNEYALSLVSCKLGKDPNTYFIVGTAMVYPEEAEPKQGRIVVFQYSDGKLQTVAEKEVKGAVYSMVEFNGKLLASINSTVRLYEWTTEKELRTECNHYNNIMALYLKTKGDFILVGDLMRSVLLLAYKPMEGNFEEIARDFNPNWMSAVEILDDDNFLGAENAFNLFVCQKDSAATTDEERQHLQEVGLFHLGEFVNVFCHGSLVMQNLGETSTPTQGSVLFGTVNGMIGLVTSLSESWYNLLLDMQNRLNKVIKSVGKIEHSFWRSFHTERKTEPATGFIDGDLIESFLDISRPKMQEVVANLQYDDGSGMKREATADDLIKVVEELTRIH

With `COC1CCN(Cc2cc(-c3ccc4c(c3)CN(C3CCC(=O)NC3=O)C4=O)nc3c2ccn3C)CC1` (stereo not drawn) [Example 102, 3-(5-(4-((4-methoxypiperidin-1-yl)methyl)-1-methyl-1H-pyrrolo[2,3-b]pyridin-6-yl)-1-oxoisoindolin-2-yl) piperidine-2,6-dione], the IC50 (in general, the midpoint of a concentration-inhibition curve) on CRBN/DDB1 lay within 100 to 500 nM. Moreover, at IKZF2, the DC50 is under 1 nM and the Dmax was over 80%. Also, on IKZF1, the DC50 lay in the range of 10 to 100 nM and the Dmax is 20 to 40%.
For `Cn1ccc2c(CN3CCC4(CCCC4)CC3)cc(-c3ccc4c(c3)CN(C3CCC(=O)NC3=O)C4=O)nc21` (stereo not drawn) [Example 103, 3-(5-(4-((8-azaspiro[4.5]decan-8-yl)methyl)-1-methyl-1H-pyrrolo[2,3-b]pyridin-6-yl)-1-oxoisoindolin-2-yl) piperidine-2,6-dio], in that order: 100 to 500 nM, 1 to 10 nM, over 80%, 10 to 100 nM and 20 to 40%.
The like results for `O=C1CCC(N2Cc3cc(-c4cc(CN5CCCC5)c5ncccc5n4)ccc3C2=O)C(=O)N1` (stereo not drawn) [Example 104, 3-(1-oxo-5-(4-(pyrrolidin-1-ylmethyl)-1,5-naphthyridin-2-yl)isoindolin-2-yl) piperidine-2,6-dione] were, in that order, 500 to 1000 nM, 1 to 10 nM, over 80%, over 10000 nM and 20 to 40%.
As for `COCC1CCCN1Cc1cc(-c2ccc3c(c2)CN(C2CCC(=O)NC2=O)C3=O)nc2c1ccn2C` (stereo not drawn) [Example 106, 3-(5-(4-((2-(methoxymethyl)pyrrolidin-1-yl)methyl)-1-methyl-1H-pyrrolo[2,3-b]pyridin-6-yl)-1-oxoisoindolin-2-yl) piperidine-2,6-dione], the IC50 at CRBN/DDB1 is 100 to 500 nM. Besides, on IKZF2, the DC50 is 1 to 10 nM and the Dmax is over 80%. For the same compound, at IKZF1, the DC50 is over 10000 nM and the Dmax is under 20%.
The compound `Cn1ccc2c(CN3CCn4nccc4C3)cc(-c3ccc4c(c3)CN(C3CCC(=O)NC3=O)C4=O)nc21` (stereo not drawn) [Example 107, 3-(5-(4-((6,7-dihydropyrazolo[1,5-a]pyrazin-5 (4H)-yl)methyl)-1-methyl-1H-pyrrolo[2,3-b]pyridin-6-yl)-1-oxoisoindolin-2-yl) piperidine-2,6-dione] yielded an IC50 on CRBN/DDB1 of 100 to 500 nM. Also, at IKZF2, the DC50 is 10 to 100 nM and the Dmax lay in the range of 40 to 60%. Moreover, on IKZF1, the DC50 is over 10000 nM and the Dmax is under 20%.
For `C[C@@H]1CC[C@@H](C)N1Cc1cc(-c2ccc3c(c2)CN(C2CCC(=O)NC2=O)C3=O)nc2c1ccn2C` (stereo partly drawn) [Example 108, 3-(5-(4-(((2R,5R)-2,5-dimethylpyrrolidin-1-yl)methyl)-1-methyl-1H-pyrrolo[2,3-b]pyridin-6-yl)-1-oxoisoindolin-2-yl) piperidine-2,6-dione], in that order: 500 to 1000 nM, 1 to 10 nM, 60 to 80%, over 10000 nM and under 20%.
At CRBN/DDB1, `COCC1CCN(Cc2cc(-c3ccc4c(c3)CN(C3CCC(=O)NC3=O)C4=O)nc3c2ccn3C)C1` (stereo not drawn) [Example 109, 3-(5-(4-((3-(methoxymethyl)pyrrolidin-1-yl)methyl)-1-methyl-1H-pyrrolo[2,3-b]pyridin-6-yl)-1-oxoisoindolin-2-yl) piperidine-2,6-dione] yielded a concentration for half-maximal inhibition (IC50) of 100 to 500 nM. In addition, at IKZF2, the DC50 was under 1 nM and the Dmax was over 80%. For the same compound, on IKZF1, the DC50 lay within 1 to 10 nM and the Dmax is 20 to 40%.
For `Cn1ccc2nc(-c3ccc4c(c3)CN(C3CCC(=O)NC3=O)C4=O)cc(CN3CCC3)c21` (stereo not drawn) [Example 110, 3-(5-(7-(azetidin-1-ylmethyl)-1-methyl-1H-pyrrolo[3,2-b]pyridin-5-yl)-1-oxoisoindolin-2-yl) piperidine-2,6-dione], in that order: 500 to 1000 nM, 1 to 10 nM, over 80%, over 10000 nM and under 20%.
Compound `O=C1CCC(N2Cc3cc(-c4cc(CN5CC(O)C5)c5cc[nH]c5n4)ccc3C2=O)C(=O)N1` (stereo not drawn) [Example 111, 3-(5-(4-((3-hydroxyazetidin-1-yl)methyl)-1H-pyrrolo[2,3-b]pyridin-6-yl)-1-oxoisoindolin-2-yl) piperidine-2,6-dione] displayed a concentration for half-maximal inhibition (IC50) on CRBN/DDB1 of 100 to 500 nM. In addition, on IKZF2, the DC50 lay within 10 to 100 nM and the Dmax lay in the range of 60 to 80%. Moreover, on IKZF1, the DC50 is over 10000 nM and the Dmax was under 20%.
In the case of `Cn1ccc2c(CN3CC4(CCC4)C3)cc(-c3ccc4c(c3)CN(C3CCC(=O)NC3=O)C4=O)nc21` (stereo not drawn) [Example 112, 3-(5-(4-((2-azaspiro[3.3]heptan-2-yl)methyl)-1-methyl-1H-pyrrolo[2,3-b]pyridin-6-yl)-1-oxoisoindolin-2-yl) piperidine-2,6-dione], the IC50 on CRBN/DDB1 was in the range of 100 to 500 nM. Further, the DC50 was under 1 nM at IKZF2 and 10 to 100 nM on IKZF1. The Dmax on IKZF2 was over 80%; on IKZF1 it was 20 to 40%.
`Cn1ccc2c(CN3CCCC3(C)C)cc(-c3ccc4c(c3)CN(C3CCC(=O)NC3=O)C4=O)nc21` (stereo not drawn) [Example 113, 3-(5-(4-((2,2-dimethylpyrrolidin-1-yl)methyl)-1-methyl-1H-pyrrolo[2,3-b]pyridin-6-yl)-1-oxoisoindolin-2-yl) piperidine-2,6-dione] came in with a half-maximal inhibitory concentration (IC50) on CRBN/DDB1 of 1000 to 5000 nM. For the same compound, on IKZF2, the DC50 was under 1 nM and the Dmax lay within 60 to 80%. For the same compound, at IKZF1, the DC50 was 10 to 100 nM and the Dmax is 20 to 40%.
The like results for `Cn1ccc2c(N3CCCC3)cc(-c3ccc4c(c3)CN(C3CCC(=O)NC3=O)C4=O)nc21` (stereo not drawn) [Example 114, 3-(5-(1-methyl-4-(pyrrolidin-1-yl)-1H-pyrrolo[2,3-b]pyridin-6-yl)-1-oxoisoindolin-2-yl) piperidine-2,6-dione] were, in that order, 1000 to 5000 nM, 10 to 100 nM, 20 to 40%, over 10000 nM and under 20%.
Consider `Cn1ccc2c(CN3CCC(n4ccnc4)CC3)cc(-c3ccc4c(c3)CN(C3CCC(=O)NC3=O)C4=O)nc21` (stereo not drawn) [Example 115, 3-(5-(4-((4-(1HIimidazol-1-yl)piperidin-1-yl)methyl)-1-methyl-1H-pyrrolo[2,3-b]pyridin-6-yl)-1-oxoisoindolin-2-yl) piperidine-2,6-dione], for which the IC50 on CRBN/DDB1 was 500 to 1000 nM. The DC50 is 10 to 100 nM at IKZF2 and over 10000 nM on IKZF1. In addition, the figures for the Dmax at IKZF2 and at IKZF1 were 60 to 80% and under 20%, respectively.
For the compound `COCCn1ccc2c(CN3CCCC3)cc(-c3ccc4c(c3)CN(C3CCC(=O)NC3=O)C4=O)nc21` (stereo not drawn) [Example 118, 3-(5-(1-(2-methoxyethyl)-4-(pyrrolidin-1-ylmethyl)-1H-pyrrolo[2,3-b]pyridin-6-yl)-1-oxoisoindolin-2-yl) piperidine-2,6-dione], the IC50 on CRBN/DDB1 lay in the range of 500 to 1000 nM. Further, the DC50 on IKZF2 was 1 to 10 nM; on IKZF1, over 10000 nM. In addition, the Dmax was 40 to 60% on IKZF2 and under 20% at IKZF1.
The like results for `O=C1CCC(N2Cc3cc(-c4cc(CN5CCC(O)C5)c5cc[nH]c5n4)ccc3C2=O)C(=O)N1` (stereo not drawn) [Example 120, 3-(5-(4-((3-hydroxypyrrolidin-1-yl)methyl)-1H-pyrrolo[2,3-b]pyridin-6-yl)-1-oxoisoindolin-2-yl) piperidine-2,6-dione] were, in that order, 100 to 500 nM, 10 to 100 nM, 100 to 1000 nM, over 80% and 20 to 40%.
`O=C1CCC(N2Cc3cc(-c4cc(CN5CCCC5)c5cc[nH]c5n4)c(F)cc3C2=O)C(=O)N1` (stereo not drawn) [Example 122, 3-(6-fluoro-1-oxo-5-(4-(pyrrolidin-1-ylmethyl)-1H-pyrrolo[2,3-b]pyridin-6-yl)isoindolin-2-yl) piperidine-2,6-dione] yielded an IC50 on CRBN/DDB1 of 1000 to 5000 nM. Also, the figures for the DC50 on IKZF2 and at IKZF1 were 100 to 1000 nM and 1 to 10 nM, respectively. For the same compound, the Dmax at IKZF2 and at IKZF1 was 20 to 40% throughout.
In turn, `CN(C)CC1CCN(Cc2cc(-c3ccc4c(c3)CN(C3CCC(=O)NC3=O)C4=O)nc3[nH]ccc23)C1` (stereo not drawn) [Example 123] displayed an IC50 at CRBN/DDB1 of 100 to 500 nM. Moreover, at IKZF2, the DC50 was in the range of 1 to 10 nM and the Dmax is over 80%. Also, on IKZF1, the DC50 lay in the range of 10 to 100 nM and the Dmax lay within 20 to 40%.
On to `CCn1ccc2nc(-c3ccc4c(c3)CN(C3CCC(=O)NC3=O)C4=O)cc(CN3CCC3)c21` (stereo not drawn) [Example 124, 3-(5-(7-(azetidin-1-ylmethyl)-1-ethyl-1H-pyrrolo[3,2-b]pyridin-5-yl)-1-oxoisoindolin-2-yl) piperidine-2,6-dione], for which the IC50 on CRBN/DDB1 was 1000 to 5000 nM. Moreover, on IKZF2, the DC50 lay within 1 to 10 nM and the Dmax is over 80%. In addition, on IKZF1, the DC50 lay within 10 to 100 nM and the Dmax lay within 20 to 40%.

The values above are taken from patent US20250214991A1 (Oncopia Therapeutics, Inc. d/b/a/ SK Life Science Labs, priority 2022, published 2025).
